The term IC50 denotes the concentration needed to halve the response being measured.

Where two headings read alike, the source gives them in different places.

These results are taken from patent publication US20250263370A1 (Tay Therapeutics Limited, priority 2022, published 2025).

For one assay, the target named is BRD4 BD1 (Homo sapiens (Human), UniProt O60885). Put plainly: NanoBRET bromodomain assay, NanoLuc-BRD4-BD1 fusion in HEK293 cells. It counts as cell-based. The settings on record: top concentration 10 μM. In general terms: In BRET a luciferase serves as donor, and the signal depends on an acceptor being close.
The target of the next assay is BRD4 BD2 (Homo sapiens (Human), UniProt O60885). Put plainly: NanoBRET bromodomain assay, NanoLuc-BRD4-BD2 fusion in HEK293 cells.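 As to all read-outs here: tracer displacement BRET read in transfected cells after 2 h compound exposure at 37 °C, signal in milliBRET units corrected against no-tracer background wells.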 The settings on record: for IC50: NanoBRET, HEK293 cells, top concentration 10 μM; for Fold selectivity: IC50 for BRD4 BD1 divided by IC50 for BRD4 BD2, qualitative if an IC50 is at the upper limit.

Procedure for BRD4 BD2: HEK293 cells were transfected using NanoLuc-BRD4-BD1 or NanoLuc-BRD4-BD2 fusion vectors and incubated at 37° C. in an atmosphere of 5% CO2 for 20-24 hours. The transfected cells were then dispensed into 96-well plates using 90 μl cell suspension per well containing 2×10^5 cells/mL in Opti-MEM and 1× final concentration of tracer. 90 μL per well of cell suspension without tracer was also dispensed into at least 3 wells as “No tracer control samples” for background correction. Serially diluted test compounds were prepared at 1000× concentration in DMSO and further diluted to 10× concentration in Opti-MEM. […] Plates were then incubated at 37° C. +5% 002 incubator for 2 hours. […] Donor emission (450 nm) and acceptor emission (610 nm) were measured using PHERAstar (BMG LabTech). For data analysis, the raw BRET ratio was generated and converted to milliBRET units with background correction using the formula: [(Acceptorsample/Donorsample−(Acceptorno tracer control/Donorno tracer control)]×1000. The mBU data was plotted as a function of compound concentration and IC50s for BRET assay were determined by nonlinear regression analysis of concentration response curves using the Collaborative Drug Discovery Vault software. The fold-selectivity was calculated by dividing the IC50 for BRD4 BD1 by the IC50 for BRD4 BD2.

In the case of `CCNC(=O)c1cc(OC(c2ccccc2)C(C)C)c(C(=O)NC)[nH]1` (racemic) [Example 77, N^5-ethyl-N^2-methyl-3-(2-methyl-1-phenylpropoxy)-1H-pyrrole-2,5-dicarboxamide], the IC50 against BRD4 BD1 is at least 10 µM; against BRD4 BD2 (BRD4 BD2 (IC50)), over 10 µM. The Fold selectivity entry on BRD4 BD2 is “— (Fold ≥0 and ≤2)”.

As to `CCNC(=O)c1cc(OC(COC)c2ccccc2)c(C(=O)NC)[nH]1` (racemic) [Example 10, N^5-ethyl-3-(2-methoxy-1-phenylethoxy)-N^2-methyl-1H-pyrrole-2,5-dicarboxamide], the IC50 was at least 10 µM on BRD4 BD1 and over 10 µM against BRD4 BD2 (BRD4 BD2 (IC50)). Further, the Fold selectivity result on BRD4 BD2 is “— (Fold ≥0 and ≤2)”.

Consider `CNC(=O)c1[nH]c(-c2ccccc2F)cc1O[C@@H](C)c1ccccc1` [Example 85, (S)-5-(2-fluorophenyl)-N-methyl-3-(1-phenylethoxy)-1H-pyrrole-2-carboxamide], for which the IC50 against BRD4 BD1 was at least 10 µM; at BRD4 BD2 (BRD4 BD2 (IC50)), 1 to 10 µM. In addition, the Fold selectivity result at BRD4 BD2 was “X (Fold >2 and ≤50)”.

As for `CCNC(=O)c1cc(OC(C)c2cccc(F)c2F)c(C(=O)NC)[nH]1` (racemic) [Example 13, 3-(1-(2,3-difluorophenyl)ethoxy)-N^5-ethyl-N^2-methyl-1H-pyrrole-2,5-dicarboxamide], the IC50 is at least 10 µM at BRD4 BD1 and 0.2 to 1 µM at BRD4 BD2 (BRD4 BD2 (IC50)). Also, the Fold selectivity result on BRD4 BD2 was “X (Fold >2 and ≤50)”.

With `CCNC(=O)c1cc(OC(C)c2ccc(I)cc2)c(C(=O)NC)[nH]1` (single isomer, unassigned) [Example 52, N^5-ethyl-3-(1-(4-iodophenyl)ethoxy)-N^2-methyl-1H-pyrrole-2,5-dicarboxamide], the IC50 on BRD4 BD1 is at least 10 µM; at BRD4 BD2 (BRD4 BD2 (IC50)), over 10 µM. In addition, the Fold selectivity entry on BRD4 BD2 was “— (Fold ≥0 and ≤2)”.

Regarding `CNC(=O)c1[nH]c(C(=O)NC(C)(C)C)cc1O[C@@H](C)c1ccccc1` [Example 121], the IC50 against BRD4 BD1 was at least 10 µM; at BRD4 BD2 (BRD4 BD2 (IC50)), 0.2 to 1 µM. Moreover, the Fold selectivity entry on BRD4 BD2 was “X (Fold >2 and ≤50)”.

In the case of `CNC(=O)c1[nH]c(C(=O)N[C@H]2CC[C@H](O)CC2)cc1O[C@@H](C)c1ccnnc1` (single isomer, unassigned) [Example 94, N^5-(4-hydroxycyclohexyl)-N^2-methyl-3-(1-(pyridazin-4-yl)ethoxy)-1H-pyrrole-2,5-dicarboxamide], the IC50 on BRD4 BD1 is at least 10 µM; on BRD4 BD2 (read-out: BRD4 BD2 (IC50)) it was over 10 µM. The Fold selectivity entry at BRD4 BD2 is “— (Fold ≥0 and ≤2)”.

With `CNC(=O)c1[nH]c(-c2ncc[nH]2)cc1O[C@@H](C)c1ccccc1` [Example 89, (S)-5-(1H-imidazol-2-yl)-N-methyl-3-(1-phenylethoxy)-1H-pyrrole-2-carboxamide], the IC50 at BRD4 BD1 was at least 10 µM; on BRD4 BD2 (BRD4 BD2 (IC50)) it was 0.05 to 0.2 µM. Moreover, on BRD4 BD2, the Fold selectivity result is “XX (Fold >50 and ≤200)”.

On to `CCNC(=O)c1cc(OC(CC)c2ccccc2)c(C(=O)NC)[nH]1` (racemic) [Example 126, N^5-ethyl-N^2-methyl-3-(1-phenylpropoxy)-1H-pyrrole-2,5-dicarboxamide], for which the IC50 on BRD4 BD1 is at least 10 µM; on BRD4 BD2 (BRD4 BD2 (IC50)), 0.2 to 1 µM. Also, the Fold selectivity entry on BRD4 BD2 is “X (Fold >2 and ≤50)”.

For `CCNC(=O)c1cc(OC(C)c2ccc(OC)cc2)c(C(=O)NC)[nH]1` (single isomer, unassigned) [Example 75, N^5-ethyl-3-(1-(4-methoxyphenyl)ethoxy)-N^2-methyl-1H-pyrrole-2,5-dicarboxamide], the values for the IC50 against BRD4 BD1 and against BRD4 BD2 (BRD4 BD2 (IC50)) were at least 10 µM and 0.05 to 0.2 µM, respectively. On BRD4 BD2, the Fold selectivity entry is “XX (Fold >50 and ≤200)”.

On to `CNC(=O)c1[nH]c(-c2ccc(F)cc2F)cc1O[C@@H](C)c1ccccc1` [Example 86, (S)-5-(2,4-difluorophenyl)-N-methyl-3-(1-phenylethoxy)-1H-pyrrole-2-carboxamide], for which the values for the IC50 against BRD4 BD1 and against BRD4 BD2 (BRD4 BD2 (IC50)) were at least 10 µM and 1 to 10 µM, respectively. Besides, the Fold selectivity result at BRD4 BD2 is “X (Fold >2 and ≤50)”.

Take `CCNC(=O)c1cc(OC(C)c2ccccc2F)c(C(=O)NC)[nH]1` (single isomer, unassigned) [Example 21, N^5-ethyl-3-(1-(2-fluorophenyl)ethoxy)-N^2-methyl-1H-pyrrole-2,5-dicarboxamide]: the half-inhibitory concentration (IC50) was at least 10 µM on BRD4 BD1 and over 10 µM at BRD4 BD2 (BRD4 BD2 (IC50)). Besides, the Fold selectivity entry on BRD4 BD2 was “— (Fold ≥0 and ≤2)”.

Consider `CNC(=O)c1[nH]c(-c2cc(C)nn2C)cc1O[C@@H](C)c1ccccc1` [Example 81, (S)-5-(1,3-dimethyl-1H-pyrazol-5-yl)-N-methyl-3-(1-phenylethoxy)-1H-pyrrole-2-carboxamide], for which the results for the IC50 against BRD4 BD1 and on BRD4 BD2 (BRD4 BD2 (IC50)) were at least 10 µM and 0.05 to 0.2 µM, respectively. Besides, the Fold selectivity result on BRD4 BD2 was “XX (Fold >50 and ≤200)”.

Take `CCNC(=O)c1cc(OC(C)c2cccc(F)c2)c(C(=O)NC)[nH]1` (racemic) [Example 123, N^5-ethyl-3-(1-(3-fluorophenyl)ethoxy)-N^2-methyl-1H-pyrrole-2,5-dicarboxamide]: the IC50 is at least 10 µM on BRD4 BD1 and 0.2 to 1 µM at BRD4 BD2 (BRD4 BD2 (IC50)). For the same molecule, the Fold selectivity entry at BRD4 BD2 is “X (Fold >2 and ≤50)”.

Turning to `CNC(=O)c1[nH]c(-c2nc(C)c(C)[nH]2)cc1O[C@@H](C)c1ccccc1` [Example 87, (S)-5-(4,5-dimethyl-1H-imidazol-2-yl)-N-methyl-3-(1-phenylethoxy)-1H-pyrrole-2-carboxamide], the IC50 on BRD4 BD1 is at least 10 µM; against BRD4 BD2 (BRD4 BD2 (IC50)), 0.05 to 0.2 µM. For the same molecule, at BRD4 BD2, the Fold selectivity result was “XX (Fold >50 and ≤200)”.

`CCNC(=O)c1cc(OC(C)c2ccc(C)cc2)c(C(=O)NC)[nH]1` (single isomer, unassigned) [Example 25, N^5-ethyl-N^2-methyl-3-(1-(p-tolyl)ethoxy)-1H-pyrrole-2,5-dicarboxamide]: the results for the IC50 on BRD4 BD1 and at BRD4 BD2 (BRD4 BD2 (IC50)) were at least 10 µM and under 0.05 µM, respectively. For the same molecule, the Fold selectivity result on BRD4 BD2 is “XXX (Fold >200)”.

With `CCNC(=O)c1cc(OC(C)c2ccc(C)cc2)c(C(=O)NC)[nH]1` (single isomer, unassigned) [Example 26, N^5-ethyl-N^2-methyl-3-(1-(p-tolyl)ethoxy)-1H-pyrrole-2,5-dicarboxamide], the IC50 was at least 10 µM against BRD4 BD1 and over 10 µM against BRD4 BD2 (BRD4 BD2 (IC50)). Besides, the Fold selectivity entry on BRD4 BD2 is “— (Fold ≥0 and ≤2)”.

Turning to `CCNC(=O)c1cc(OC(C)c2cccc(C)c2)c(C(=O)NC)[nH]1` (racemic) [Example 17, N^5-ethyl-N^2-methyl-3-(1-(m-tolyl)ethoxy)-1H-pyrrole-2,5-dicarboxamide], the concentration for half-maximal inhibition (IC50) is at least 10 µM against BRD4 BD1 and 0.05 to 0.2 µM at BRD4 BD2 (BRD4 BD2 (IC50)). The Fold selectivity entry at BRD4 BD2 was “XX (Fold >50 and ≤200)”.

As for `CNC(=O)c1[nH]c(-c2ccccc2)cc1O[C@@H](C)c1ccccc1` [Example 84, (S)-N-methyl-5-phenyl-3-(1-phenylethoxy)-1H-pyrrole-2-carboxamide], the half-inhibitory concentration (IC50) against BRD4 BD1 is at least 10 µM; against BRD4 BD2 (BRD4 BD2 (IC50)), 1 to 10 µM. Further, the Fold selectivity result at BRD4 BD2 was “X (Fold >2 and ≤50)”.

Turning to “(S)—N^2-ethyl-4-(1-(2-fluorophenyl) ethyl)-N^5,3-dimethyl-1H-pyrrole-2,5-dicarboxamide [Example 74]”, the IC50 against BRD4 BD1 was at least 10 µM; at BRD4 BD2 (read-out: BRD4 BD2 (IC50)), 1 to 10 µM. Further, the Fold selectivity entry on BRD4 BD2 was “X (Fold >2 and ≤50)”.

For `CNC(=O)c1[nH]c(-c2cnn(C)c2)cc1O[C@@H](C)c1ccccc1` [Example 88, (S)-N-methyl-5-(1-methyl-1H-pyrazol-4-yl)-3-(1-phenylethoxy)-1H-pyrrole-2-carboxamide], the figures for the IC50 on BRD4 BD1 and against BRD4 BD2 (BRD4 BD2 (IC50)) were at least 10 µM and 0.05 to 0.2 µM, respectively. In addition, at BRD4 BD2, the Fold selectivity entry was “XX (Fold >50 and ≤200)”.

For `CCNC(=O)c1cc(OC(C)c2cccc(C#N)c2)c(C(=O)NC)[nH]1` (stereo not drawn) [Example 4, 3-(1-(3-cyanophenyl)ethoxy)-N^5-ethyl-N^2-methyl-1H-pyrrole-2,5-dicarboxamide], the values for the IC50 against BRD4 BD1 and on BRD4 BD2 (BRD4 BD2 (IC50)) were at least 10 µM and over 10 µM, respectively. The Fold selectivity entry on BRD4 BD2 is “— (Fold ≥0 and ≤2)”.

For `CNC(=O)c1[nH]c(C(=O)N[C@H]2CC[C@H](O)CC2)cc1OC(C)c1ccc(Cl)cc1F` (single isomer, unassigned) [Example 37, 3-(1-(4-chloro-2-fluorophenyl)ethoxy)-N^5-(trans-4-hydroxycyclohexyl)-N^2-methyl-1H-pyrrole-2,5-dicarboxamide], the IC50 at BRD4 BD1 is at least 10 µM; on BRD4 BD2 (BRD4 BD2 (IC50)), 1 to 10 µM. Moreover, the Fold selectivity entry on BRD4 BD2 is “— (Fold ≥0 and ≤2)”.

Regarding `CCNC(=O)c1cc(OC(CO)c2ccccc2)c(C(=O)NC)[nH]1` (racemic) [Example 73, N^5-ethyl-3-(2-hydroxy-1-phenylethoxy)-N^2-methyl-1H-pyrrole-2,5-dicarboxamide], the half-maximal inhibitory concentration (IC50) was at least 10 µM against BRD4 BD1 and 1 to 10 µM against BRD4 BD2 (BRD4 BD2 (IC50)). Besides, the Fold selectivity result on BRD4 BD2 was “X (Fold >2 and ≤50)”.

In the case of `CCNC(=O)c1cc(OC(C)c2ccc(F)cc2F)c(C(=O)NC)[nH]1` (racemic) [Example 14, 3-(1-(2,4-difluorophenyl)ethoxy)-N^5-ethyl-N^2-methyl-1H-pyrrole-2,5-dicarboxamide], the IC50 on BRD4 BD1 was at least 10 µM; at BRD4 BD2 (BRD4 BD2 (IC50)), 0.2 to 1 µM. The Fold selectivity entry at BRD4 BD2 was “X (Fold >2 and ≤50)”.

With `CNC(=O)c1[nH]c(C(=O)N[C@@H](C)C(F)(F)F)cc1O[C@@H](C)c1ccccc1` [Example 120, N^2-methyl-3-((S)-1-phenylethoxy)-N^5-((S)-1,1,1-trifluoropropan-2-yl)-1H-pyrrole-2,5-dicarboxamide], the IC50 against BRD4 BD1 was at least 10 µM; against BRD4 BD2 (BRD4 BD2 (IC50)), over 10 µM. Besides, the Fold selectivity result at BRD4 BD2 was “— (Fold ≥0 and ≤2)”.

On to `CNC(=O)c1[nH]c(C(=O)NC(C)C)cc1O[C@@H](C)c1ccccc1F` [Example 58, (S)-3-(1-(2-fluorophenyl)ethoxy)-N^5-isopropyl-N^2-methyl-1H-pyrrole-2,5-dicarboxamide], for which the IC50 against BRD4 BD1 is at least 10 µM; against BRD4 BD2 (BRD4 BD2 (IC50)) it was 0.05 to 0.2 µM. Also, the Fold selectivity entry on BRD4 BD2 was “XX (Fold >50 and ≤200)”.
